Results from ChEMBL document CHEMBL1201862, “PubChem BioAssay data set” (2004).
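All cell lines were grown in 96-well plates and treated with compound for 48 hours. GI50 is the concentration that inhibits growth by half.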 Active and inactive are the calls of the source. No stated cut-off is given here; in the data, active = GI50 up to about 1.1 µM and inactive = higher.

Experiments:
Test in all cases: inhibition of tumour cell growth, NCI panel, 48 h
UACC-257 = test system: UACC-257
SK-OV-3 = test system: SK-OV-3
EKVX = test system: EKVX
K562 = test system: K562
MCF7 = test system: MCF7
A549 = test system: A549
OVCAR-3 = test system: OVCAR-3
LOX IMVI = test system: LOX IMVI
A498 = test system: A498
SNB-75 = test system: SNB-75
SF-295 = test system: SF-295
OVCAR-4 = test system: OVCAR-4
T47D = test system: T47D
UO-31 = test system: UO-31
SNB-19 = test system: SNB-19
SF-539 = test system: SF-539
MDA-MB-231 = test system: MDA-MB-231
HL-60 = test system: HL-60
NCI-H226 = test system: NCI-H226
SF-268 = test system: SF-268

Measured: GI50

O=C(/C=C/c1cccc([N+](=O)[O-])c1)N1CCN(CCOC(c2ccccc2)c2ccccc2)CC1
inactive: UACC-257 32.4 µM | SK-OV-3 > 100 µM | EKVX > 100 µM | K562 19.4 µM | MCF7 27.9 µM | A549 45.7 µM | OVCAR-3 66.1 µM | LOX IMVI 22.9 µM | A498 50.7 µM | SNB-75 54.2 µM | SF-295 56.8 µM | OVCAR-4 29.9 µM | T47D 17.9 µM | UO-31 33.1 µM | SNB-19 > 100 µM

CCOC(=O)N1c2c(c3ccccc3n2C(=O)OCC)C(=O)C(OC)N1C(=O)OCC (configuration not stated)
inactive: SF-539 24.6 µM | UACC-257 29.4 µM | SK-OV-3 28.4 µM | EKVX 22 µM | K562 21.1 µM | MDA-MB-231 22.9 µM | MCF7 34.3 µM | HL-60 17.2 µM | A549 32.7 µM | OVCAR-3 30.2 µM | LOX IMVI 18.1 µM | A498 25.4 µM | SF-295 19.6 µM | OVCAR-4 41.9 µM | UO-31 33.7 µM | SNB-19 41.4 µM | NCI-H226 36.1 µM

CC/C=C\C/C=C\C/C=C\CCCCCCCC(=O)OC(COC(=O)CCCCCCCCCCCCCCCCC)COC1OC(CO)C(O)C(O)C1O (configuration not stated)
inactive: UACC-257 > 25 µM | SK-OV-3 > 25 µM | EKVX 4.7 µM | K562 18.6 µM | MDA-MB-231 > 25 µM | MCF7 > 25 µM | HL-60 > 25 µM | A549 > 25 µM | OVCAR-3 7.74 µM | LOX IMVI > 25 µM | A498 > 25 µM | SNB-75 > 25 µM | SF-295 > 25 µM | OVCAR-4 > 25 µM | T47D > 25 µM | SF-268 > 25 µM | UO-31 > 25 µM | SNB-19 > 25 µM | NCI-H226 > 25 µM

O=C1CNc2cc(N3CCN(c4cccc(C(F)(F)F)c4)CC3)ccc2N1
inactive: SF-539 57.3 µM | UACC-257 37 µM | SK-OV-3 > 100 µM | EKVX 91 µM | MDA-MB-231 > 100 µM | MCF7 43.1 µM | HL-60 19.9 µM | A549 24.7 µM | OVCAR-3 27.5 µM | LOX IMVI 38.4 µM | SNB-75 84.7 µM | SF-295 24.3 µM | OVCAR-4 21.4 µM | T47D 32.3 µM | SF-268 > 100 µM | UO-31 24.7 µM | SNB-19 > 100 µM | NCI-H226 19.6 µM

CC(=O)O[C@H]1[C@H](O[C@H]2CC[C@]34C[C@]35CC[C@]3(C)[C@@H]([C@@]6(C)CC[C@@H](C(C)(C)O)O6)[C@@H](O)C[C@@]3(C)[C@@H]5C[C@H](O[C@@H]3O[C@H](CO)[C@@H](O)[C@H](O)[C@H]3O)[C@H]4C2(C)C)OC[C@@H](O)[C@@H]1O
inactive: SF-539 40.4 µM | UACC-257 > 100 µM | SK-OV-3 > 100 µM | EKVX > 100 µM | K562 45.3 µM | HL-60 35.6 µM | A549 > 100 µM | OVCAR-3 > 100 µM | LOX IMVI 44 µM | A498 > 100 µM | SNB-75 > 100 µM | SF-295 > 100 µM | OVCAR-4 > 100 µM | SF-268 > 100 µM | UO-31 > 100 µM | SNB-19 > 100 µM | NCI-H226 > 100 µM

O=C1O[C@H]2[C@@H]3OC(=O)c4cc(O)c(O)c(O)c4-c4c(cc(O)c(O)c4O)C(=O)OC[C@H]2O[C@@H](OC(=O)c2cc(O)c(O)c(O)c2)[C@@H]3OC(=O)c2cc(O)c(O)c3c2[C@@H]2C1=CC(=O)C(O)(O)C2(O)O3 (some centres not stated)
inactive: UACC-257 51.6 µM | SK-OV-3 11 µM | EKVX 16.1 µM | K562 29.6 µM | MDA-MB-231 19.8 µM | MCF7 25.2 µM | HL-60 20.7 µM | A549 25.9 µM | OVCAR-3 35.6 µM | LOX IMVI 13.3 µM | A498 82.8 µM | SNB-75 24.6 µM | SF-295 31.6 µM | OVCAR-4 15.2 µM | T47D 26.8 µM | SF-268 74.1 µM | UO-31 21.7 µM | SNB-19 76.9 µM | NCI-H226 23.2 µM

N#Cc1nc2ccccc2nc1N1CCN(c2ccc([N+](=O)[O-])cc2)CC1
inactive: UACC-257 > 100 µM | SK-OV-3 > 100 µM | EKVX > 100 µM | MDA-MB-231 > 100 µM | MCF7 > 100 µM | HL-60 > 100 µM | A549 > 100 µM | LOX IMVI > 100 µM | A498 > 100 µM | SNB-75 > 100 µM | SF-295 > 100 µM | OVCAR-4 > 100 µM | T47D > 100 µM | SF-268 > 100 µM | UO-31 > 100 µM | SNB-19 > 100 µM | NCI-H226 > 100 µM
